Measurements taken from ChEMBL document CHEMBL1127007, “Quinazolinones 2: QSAR and in vivo characterization of AT1 selective AII antagonists” (Bioorg Med Chem Lett, 1993).
“And” between values parts separate entries of the source, which are not always exact repeats. Equal values may be shown once.

How the values were obtained:
[1] = biological target: T1, Type-2 angiotensin II receptor (Homo sapiens) (UniProt P50052); assay: In vitro antagonist activity against the Angiotensin II (type 2) receptor.; format: functional
T1 sequence (whole entry): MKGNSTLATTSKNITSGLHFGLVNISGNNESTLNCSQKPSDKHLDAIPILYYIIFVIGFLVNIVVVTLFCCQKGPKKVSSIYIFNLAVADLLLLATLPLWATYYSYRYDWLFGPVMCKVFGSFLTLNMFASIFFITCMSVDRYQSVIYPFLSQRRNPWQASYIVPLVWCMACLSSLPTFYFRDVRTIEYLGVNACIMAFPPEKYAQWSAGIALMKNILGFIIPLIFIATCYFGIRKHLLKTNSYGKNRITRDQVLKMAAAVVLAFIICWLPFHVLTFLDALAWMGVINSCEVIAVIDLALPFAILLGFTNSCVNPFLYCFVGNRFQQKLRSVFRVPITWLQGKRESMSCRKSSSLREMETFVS

[2] = biological target: Angiotensin II receptor (Rattus norvegicus) (UniProt P29089+P25095+P35351); assay: Duration of action as time for pressor response to fall below 30% for a single bolus by intravenous dose; format: functional, organism-based
[3] = test system: Rattus norvegicus; assay: Compound was evaluated in vivo for inhibition of the AII pressor response in normotensive rat at dose 1 mg/kg, iv after 0.2 hour; format: functional
[4] = test system: Rattus norvegicus; assay: Compound was evaluated in vivo for inhibition of the AII pressor response in normotensive rat at dose 0.3 mg/kg, iv; format: functional
[5] = biological target: T2, Type-1 angiotensin II receptor (Oryctolagus cuniculus, UniProt P34976); assay: Displacement of [125I]Sar1-Ile8-AII (without BSA) from type 1 Angiotensin II receptor of rabbit aorta; format: tissue-based
T2 sequence (P34976 whole entry): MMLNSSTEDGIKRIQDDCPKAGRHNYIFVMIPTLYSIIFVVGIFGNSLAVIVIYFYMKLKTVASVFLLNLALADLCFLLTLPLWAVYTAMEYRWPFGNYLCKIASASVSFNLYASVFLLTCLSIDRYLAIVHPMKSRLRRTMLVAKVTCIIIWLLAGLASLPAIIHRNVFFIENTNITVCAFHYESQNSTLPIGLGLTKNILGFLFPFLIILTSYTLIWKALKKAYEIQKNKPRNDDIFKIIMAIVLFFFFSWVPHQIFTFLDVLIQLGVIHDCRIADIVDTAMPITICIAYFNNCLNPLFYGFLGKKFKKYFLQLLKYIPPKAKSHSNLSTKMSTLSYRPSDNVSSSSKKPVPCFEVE

[6] = test system: Rattus norvegicus; assay: Compound was evaluated in vivo for inhibition of the AII pressor response in normotensive rat at dose 0.3 mg/kg, p.o. after 3.5 hour; format: functional; details: route oral
[7] = test system: Rattus norvegicus; assay: The duration of action is expressed as the time for the % inhibition of pressor response to fall below 30% for a single bolus of the drug administered perorally.; format: functional
[8] = test system: Rattus norvegicus; assay: Compound was evaluated in vivo for inhibition of the AII pressor response in normotensive rat at dose 1 mg/kg, iv after >6 hour; format: functional
[9] = biological target: T2, Type-1 angiotensin II receptor; assay: Ability to displace [125I]Sar1-Ile8-AII from angiotensin II receptor, type 1 in rabbit aorta in presence of 0.2% bovine serum albumin (BSA) was determined in vitro; format: tissue-based
[10] = test system: Rattus norvegicus; assay: Compound was evaluated in vivo for inhibition of the AII pressor response in normotensive rat at dose 1 mg/kg, iv after 0.5 hour; format: functional
[11] = test system: Rattus norvegicus; assay: Compound was evaluated in vivo for inhibition of the AII pressor response in normotensive rat at dose 1 mg/kg, p.o. after >5 hour; format: functional; details: route oral
[12] = test system: Rattus norvegicus; assay: Compound was evaluated in vivo for inhibition of the AII pressor response in normotensive rat at dose 0.3 mg/kg, p.o. after >3.5 hour; format: functional; details: route oral
[13] = test system: Rattus norvegicus; assay: Compound was evaluated in vivo for inhibition of the AII pressor response in normotensive rat at dose 0.1 mg/kg, p.o. after >3 hour; format: functional; details: route oral
[14] = test system: Rattus norvegicus; assay: Compound was evaluated in vivo for inhibition of the AII pressor response in normotensive rat at dose 0.1 mg/kg, iv after 2.5 hour; format: functional
[15] = test system: Rattus norvegicus; assay: Compound was evaluated in vivo for inhibition of the AII pressor response in normotensive rat at dose 0.03 mg/kg, po; format: functional
[16] = test system: Rattus norvegicus; assay: Compound was evaluated in vivo for inhibition of the AII pressor response in normotensive rat at dose 0.3 mg/kg, iv after 4 hour; format: functional
[17] = test system: Rattus norvegicus; assay: Compound was evaluated in vivo for inhibition of the AII pressor response in normotensive rat at dose 0.03 mg/kg, iv; format: functional
[18] = test system: Rattus norvegicus; assay: Compound was evaluated in vivo for inhibition of the AII pressor response in normotensive rat at dose 1 mg/kg, iv after <0.5 hour; format: functional
[19] = test system: Rattus norvegicus; assay: Compound was evaluated in vivo for inhibition of the AII pressor response in normotensive rat at dose 1 mg/kg, iv after 1 hour; format: functional
[20] = test system: Rattus norvegicus; assay: Compound was evaluated in vivo for inhibition of the AII pressor response in normotensive rat at dose 1 mg/kg, iv after 1.2 hour; format: functional
[21] = test system: Rattus norvegicus; assay: Compound was evaluated in vivo for inhibition of the AII pressor response in normotensive rat at dose 3 mg/kg, iv after >6 hour; format: functional
[22] = test system: Rattus norvegicus; assay: Compound was evaluated in vivo for inhibition of the AII pressor response in normotensive rat at dose 1 mg/kg, iv after 0.3 hour; format: functional
[23] = test system: Rattus norvegicus; assay: Compound was evaluated in vivo for inhibition of the AII pressor response in normotensive rat at dose 3 mg/kg, p.o. after >6 hour; format: functional; details: route oral
[24] = test system: Rattus norvegicus; assay: Compound was evaluated in vivo for inhibition of the AII pressor response in normotensive rat at dose 1 mg/kg, iv after 1.8 hour; format: functional
[25] = test system: Rattus norvegicus; assay: Compound was evaluated in vivo for inhibition of the AII pressor response in normotensive rat at dose 1 mg/kg, iv after 4.5 hour; format: functional
[26] = test system: Rattus norvegicus; assay: Compound was evaluated in vivo for inhibition of the AII pressor response in normotensive rat at dose 1 mg/kg, p.o. after 0.2 hour; format: functional; details: route oral
[27] = test system: Rattus norvegicus; assay: Compound was evaluated in vivo for inhibition of the AII pressor response in normotensive rat at dose 1 mg/kg, iv; format: functional
[28] = test system: Rattus norvegicus; assay: Compound was evaluated in vivo for inhibition of the AII pressor response in normotensive rat at dose 3 mg/kg, iv after 2.5 hour; format: functional
[29] = test system: Rattus norvegicus; assay: Compound was evaluated in vivo for inhibition of the AII pressor response in normotensive rat at dose 3 mg/kg, p.o. after 4.2 hour; format: functional; details: route oral

Activity [1] [nM]	Duration [2]	IC50 [5] [nM]	IC50 [9] [nM]	SMILES	further results
> 1000	0 h			CCCCc1nc2ccc(N(C)C(=O)OCc3ccccc3)cc2c(=O)n1Cc1ccc(-c2ccccc2-c2nn[nH]n2)cc1	inhibition in vivo at 0.3 mg/kg [4]: 28%
> 1000	0.5 h	7.6	3	CCCCc1nc2ccc(S(C)(=O)=O)cc2c(=O)n1Cc1ccc(-c2ccccc2-c2nn[nH]n2)cc1	inhibition in vivo at 1 mg/kg [10]: 79%
> 1000	> 0.5 h		5	CCCCc1nc2ccc(N(C)C)cc2c(=O)n1Cc1ccc(-c2ccccc2-c2nn[nH]n2)cc1	inhibition in vivo at 1 mg/kg [18]: 55%
> 1000	1 h		4.3	CCCCc1nc2ccc(NC(=O)OCc3ccccc3)cc2c(=O)n1Cc1ccc(-c2ccccc2-c2nn[nH]n2)cc1	inhibition in vivo at 1 mg/kg [19]: 84%
> 1000	1.2 h			CCCCc1nc2ccc(NC)cc2c(=O)n1Cc1ccc(-c2ccccc2-c2nn[nH]n2)cc1	inhibition in vivo at 1 mg/kg [20]: 94%
		1.1	8	CCCCc1nc2ccc(NCc3ccccc3)cc2c(=O)n1Cc1ccc(-c2ccccc2-c2nn[nH]n2)cc1	
> 1000		4	5	CCCCc1nc2ccc(C(C)C)cc2c(=O)n1Cc1ccc(-c2ccccc2-c2nn[nH]n2)cc1	inhibition in vivo at 3 mg/kg [21]: 90%; inhibition in vivo at 1 mg/kg [22]: 34%; Duration [7]: >6 h; inhibition in vivo at 3 mg/kg [23]: 72%
> 1000	1.8 h	0.9	1	CCCCc1nc2ccc([S+](C)[O-])cc2c(=O)n1Cc1ccc(-c2ccccc2-c2nn[nH]n2)cc1 (centres undefined)	inhibition in vivo at 1 mg/kg [24]: 89%
		30		CCCCc1nc2ccc(-c3ccc(Cl)cc3)cc2c(=O)n1Cc1ccc(-c2ccccc2-c2nn[nH]n2)cc1	
			0.83	CCCCc1nc2ccc(N(C)C(=O)OCc3ccccc3)cc2c(=O)n1Cc1ccc(-c2ccccc2-c2nnn[nH]2)cc1	
> 1000	4.5 h			CCCCc1nc2ccc(N)cc2c(=O)n1Cc1ccc(-c2ccccc2-c2nn[nH]n2)cc1	Duration [7]: 0.2 h; inhibition in vivo at 1 mg/kg [25]: 93%; inhibition in vivo at 1 mg/kg [26]: 32%
> 1000				CCCCc1nc2ccc(C)cc2c(=O)n1Cc1ccc(-c2ccccc2-c2nn[nH]n2)cc1	inhibition in vivo at 1 mg/kg [27]: 28%; inhibition in vivo at 3 mg/kg [28]: 76%; Duration [7]: 4.2 h; inhibition in vivo at 3 mg/kg [29]: 64%

Second part, the compound before the results:

SMILES	Activity [1] [nM]	Duration [2]	IC50 [5] [nM]	IC50 [9] [nM]	further results
CCCCc1nc2cc(OC)c(OC)cc2c(=O)n1Cc1ccc(-c2ccccc2-c2nn[nH]n2)cc1	> 1000	0.2 h			inhibition in vivo at 1 mg/kg [3]: 30%
CCCCc1nc2ccc(C)cc2c(=O)n1Cc1ccc(-c2ccccc2-c2nnn[nH]2)cc1			1.1		
CCCCc1nc2ccc(N(C)C(=O)OCC(C)C)cc2c(=O)n1Cc1ccc(-c2ccccc2-c2nn[nH]n2)cc1	> 1000				inhibition in vivo at 0.3 mg/kg [6]: 60%; Duration [7]: 3.5 h; inhibition in vivo at 1 mg/kg [8]: 72%
CCCCc1nc2ccc(NC(=O)N(C)C(C)C)cc2c(=O)n1Cc1ccc(-c2ccccc2-c2nn[nH]n2)cc1	> 1000	> 6 h and 4 h and 2.5 h			inhibition in vivo at 1 mg/kg [11]: 84%; inhibition in vivo at 0.3 mg/kg [12]: 80%; inhibition in vivo at 0.1 mg/kg [13]: 58%; inhibition in vivo at 0.1 mg/kg [14]: 85%; Duration [7]: >5 h and >3.5 h and >3 h; inhibition in vivo at 1 mg/kg [8]: 94%; inhibition in vivo at 0.03 mg/kg [15]: 16%; inhibition in vivo at 0.3 mg/kg [16]: 96%; inhibition in vivo at 0.03 mg/kg [17]: 15%
CCCCc1nc2ccc(-c3ccccn3)cc2c(=O)n1Cc1ccc(-c2ccccc2-c2nnn[nH]2)cc1			5		
Cc1ccc2nc(-c3ccc(-c4ccccc4C(=O)O)cc3)n(Cc3ccc(-c4ccccc4-c4nn[nH]n4)cc3)c(=O)c2c1				92	
CCCCc1nc2ccc(CC)cc2c(=O)n1Cc1ccc(-c2ccccc2-c2nnn[nH]2)cc1				4	
CCCCc1nc2ccc(O)cc2c(=O)n1Cc1ccc(-c2ccccc2-c2nnn[nH]2)cc1				27	
CCCCC(=O)Nc1ccc2nc(CCCC)n(Cc3ccc(-c4ccccc4-c4nnn[nH]4)cc3)c(=O)c2c1			8.9		
Nc1ccc2nc(-c3ccc(-c4ccccc4C(=O)O)cc3)n(Cc3ccc(-c4ccccc4-c4nn[nH]n4)cc3)c(=O)c2c1				33	
CCCCc1nc2ccc(N(C)C(=O)OCC(C)C)cc2c(=O)n1Cc1ccc(-c2ccccc2-c2nnn[nH]2)cc1			1.6	3.4	
CCCCc1nc2ccc(NS(=O)(=O)C(F)(F)F)cc2c(=O)n1Cc1ccc(-c2ccccc2-c2nn[nH]n2)cc1				120	
CCCCc1nc2ccc(N(C)C(=O)N(C)C(C)C)cc2c(=O)n1Cc1ccc(-c2ccccc2-c2nnn[nH]2)cc1			0.58		
O=C(O)c1ccccc1-c1ccc(-c2nc3ccc([N+](=O)[O-])cc3c(=O)n2Cc2ccc(-c3ccccc3-c3nnn[nH]3)cc2)cc1				940	
CCCCc1nc2ccc(NC)cc2c(=O)n1Cc1ccc(-c2ccccc2-c2nnn[nH]2)cc1				2	
CCCCc1nc2ccc(OC(=O)NC(C)C)cc2c(=O)n1Cc1ccc(-c2ccccc2-c2nn[nH]n2)cc1	> 1000	0 h		1	inhibition in vivo at 0.3 mg/kg [4]: 30%
CCCCc1nc2ccc(NC(=O)OCC(C)C)cc2c(=O)n1Cc1ccc(-c2ccccc2-c2nnn[nH]2)cc1			1.6	6.4	
CC(=O)Nc1ccc2nc(-c3ccc(-c4ccccc4C(=O)O)cc3)n(Cc3ccc(-c4ccccc4-c4nn[nH]n4)cc3)c(=O)c2c1				50	
O=C(O)c1ccccc1-c1ccc(-c2nc3ccccc3c(=O)n2Cc2ccc(-c3ccccc3-c3nn[nH]n3)cc2)cc1				20	
